# According to ChEMBL document CHEMBL3046289, “Synthesis and in vitro antimicrobial activity of some newer quinazolinonesulfonamide linked hybrid heterocyclic entities derived from glycine” (2013):
# Key:
# Format in all cases: functional
# Aspergillus niger = assay: Antifungal activity against Aspergillus niger MTCC 282 assessed as growth inhibition after 48 hr by broth microdilution method; details: MTCC 282, 48 h
# Escherichia coli = assay: Antibacterial activity against Escherichia coli MTCC 443 assessed as growth inhibition after 24 hr by broth microdilution method; details: MTCC 443, 24 h
# Pseudomonas aeruginosa = assay: Antibacterial activity against Pseudomonas aeruginosa MTCC 1688 assessed as growth inhibition after 24 hr by broth microdilution method; details: MTCC 1688, 24 h
# Bacillus cereus = assay: Antibacterial activity against Bacillus cereus MTCC 1305 assessed as growth inhibition after 24 hr by broth microdilution method; details: MTCC 1305, 24 h
# Candida albicans = assay: Antifungal activity against Candida albicans MTCC 227 assessed as growth inhibition after 48 hr by broth microdilution method; details: MTCC 227, 48 h
# Staphylococcus aureus = assay: Antibacterial activity against Staphylococcus aureus MTCC 2940 assessed as growth inhibition after 24 hr by broth microdilution method; details: MTCC 2940, 24 h
# Klebsiella pneumoniae = assay: Antibacterial activity against Klebsiella pneumoniae MTCC 139 assessed as growth inhibition after 24 hr by broth microdilution method; details: MTCC 139, 24 h
Compound,MIC (Aspergillus niger),MIC (Escherichia coli),MIC (Pseudomonas aeruginosa),MIC (Bacillus cereus),MIC (Candida albicans),MIC (Staphylococcus aureus),MIC (Klebsiella pneumoniae)
Nc1ccc(S(=O)(=O)NCc2nc3ccccc3c(=O)n2-c2ccccc2)cc1,90 µg/mL,80 µg/mL,85 µg/mL,95 µg/mL,100 µg/mL,85 µg/mL,95 µg/mL
CC(=O)Nc1ccc(S(=O)(=O)NCc2nc3ccccc3c(=O)n2-c2ccccc2)cc1,95 µg/mL,110 µg/mL,125 µg/mL,115 µg/mL,105 µg/mL,95 µg/mL,130 µg/mL
Cc1ccccc1-n1c(C)nc2ccccc2c1=O [METHAQUALONE],90 µg/mL,75 µg/mL,100 µg/mL,140 µg/mL,125 µg/mL,125 µg/mL,115 µg/mL
Nc1ccc(S(N)(=O)=O)cc1 [SULFANILAMIDE],50 µg/mL,55 µg/mL,65 µg/mL,55 µg/mL,60 µg/mL,50 µg/mL,80 µg/mL
